#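 How tested: cells in 96-well plates exposed to compound for 48 hours at five concentrations. GI50 marks 50% less growth.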 Calls of active or inactive are those of the source. Cut-off read from the data, not from the text of the source: active = GI50 up to about 1.1 µM and inactive = higher.
# Tests used:
# Assay in all cases: inhibition of tumour cell growth, NCI panel, 48 h
# Hs-578T = system: Hs-578T
# MDA-N = system: MDA-N
# TK-10 = system: TK-10
# CCRF-CEM = system: CCRF-CEM
# SNB-19 = system: SNB-19
# OVCAR-5 = system: OVCAR-5
# IGROV-1 = system: IGROV-1
# KM12 = system: KM12
# ACHN = system: ACHN
# HOP-62 = system: HOP-62
# NCI/ADR-RES = system: NCI/ADR-RES
# A549 = system: A549
# UACC-257 = system: UACC-257
# SK-MEL-28 = system: SK-MEL-28
# OVCAR-3 = system: OVCAR-3
# OVCAR-4 = system: OVCAR-4
# MDA-MB-435 = system: MDA-MB-435
# HCT-15 = system: HCT-15
# MOLT-4 = system: MOLT-4
# PC-3 = system: PC-3
# UO-31 = system: UO-31
# HCT-116 = system: HCT-116
# K562 = system: K562
# MDA-MB-231 = system: MDA-MB-231
# A498 = system: A498
# SK-OV-3 = system: SK-OV-3
# U-251 = system: U-251
# SW-620 = system: SW-620
# RXF 393 = system: RXF 393
# CAKI-1 = system: CAKI-1
# SNB-75 = system: SNB-75
# RPMI-8226 = system: RPMI-8226
# HT-29 = system: HT-29
# 786-0 = system: 786-0
# UACC-62 = system: UACC-62
# T47D = system: T47D
# SR = system: SR
# HL-60 = system: HL-60
# COLO 205 = system: COLO 205
# SF-295 = system: SF-295
# LOX IMVI = system: LOX IMVI
# HCC 2998 = system: HCC 2998
# HOP-92 = system: HOP-92
# SF-539 = system: SF-539
# NCI-H460 = system: NCI-H460
# SK-MEL-5 = system: SK-MEL-5
# NCI-H226 = system: NCI-H226
# DU-145 = system: DU-145
# SK-MEL-2 = system: SK-MEL-2
# SN12C = system: SN12C
# BT-549 = system: BT-549
# OVCAR-8 = system: OVCAR-8
# EKVX = system: EKVX
# MCF7 = system: MCF7
# NCI-H522 = system: NCI-H522
# SF-268 = system: SF-268
# M14 = system: M14
# Malme-3M = system: Malme-3M
# NCI-H23 = system: NCI-H23
smiles,measurement,setting,value
CCOC(=O)CN1CCNCCN(CC(=O)OCC)CCNCC1,GI50,Hs-578T,> 100 µM (inactive)
same,GI50,MDA-N,> 100 µM (inactive)
same,GI50,TK-10,> 100 µM (inactive)
same,GI50,CCRF-CEM,> 100 µM (inactive)
same,GI50,SNB-19,> 100 µM (inactive)
same,GI50,OVCAR-5,> 100 µM (inactive)
same,GI50,IGROV-1,> 100 µM (inactive)
same,GI50,KM12,> 100 µM (inactive)
same,GI50,ACHN,> 100 µM (inactive)
same,GI50,HOP-62,> 100 µM (inactive)
same,GI50,NCI/ADR-RES,> 100 µM (inactive)
same,GI50,A549,> 100 µM (inactive)
same,GI50,UACC-257,> 100 µM (inactive)
same,GI50,SK-MEL-28,> 100 µM (inactive)
same,GI50,OVCAR-3,> 100 µM (inactive)
same,GI50,OVCAR-4,> 100 µM (inactive)
same,GI50,MDA-MB-435,> 100 µM (inactive)
same,GI50,HCT-15,> 100 µM
same,GI50,MOLT-4,> 100 µM (inactive)
same,GI50,PC-3,> 100 µM (inactive)
same,GI50,UO-31,52.6 µM (inactive)
same,GI50,HCT-116,> 100 µM (inactive)
same,GI50,K562,80.5 µM (inactive)
same,GI50,MDA-MB-231,> 100 µM (inactive)
same,GI50,A498,> 100 µM (inactive)
same,GI50,SK-OV-3,> 100 µM (inactive)
same,GI50,U-251,> 100 µM (inactive)
same,GI50,SW-620,> 10 µM (inactive)
same,GI50,RXF 393,> 100 µM (inactive)
same,GI50,CAKI-1,> 100 µM (inactive)
same,GI50,SNB-75,> 100 µM (inactive)
same,GI50,RPMI-8226,> 100 µM (inactive)
same,GI50,HT-29,55.3 µM (inactive)
same,GI50,786-0,> 100 µM (inactive)
same,GI50,UACC-62,> 100 µM (inactive)
same,GI50,T47D,> 100 µM (inactive)
same,GI50,SR,78.7 µM (inactive)
same,GI50,HL-60,> 100 µM (inactive)
same,GI50,COLO 205,> 100 µM (inactive)
same,GI50,SF-295,> 100 µM (inactive)
same,GI50,LOX IMVI,> 100 µM (inactive)
same,GI50,HCC 2998,> 100 µM (inactive)
same,GI50,HOP-92,> 100 µM (inactive)
same,GI50,SF-539,> 100 µM (inactive)
same,GI50,NCI-H460,90.4 µM (inactive)
same,GI50,SK-MEL-5,> 100 µM (inactive)
same,GI50,NCI-H226,> 100 µM (inactive)
same,GI50,DU-145,> 100 µM (inactive)
same,GI50,SK-MEL-2,> 100 µM (inactive)
same,GI50,SN12C,> 100 µM (inactive)
same,GI50,BT-549,> 100 µM (inactive)
same,GI50,OVCAR-8,> 100 µM (inactive)
same,GI50,EKVX,> 100 µM (inactive)
same,GI50,MCF7,> 100 µM (inactive)
same,GI50,NCI-H522,> 100 µM (inactive)
Cc1ccccc1C(=N)c1ccccc1Cc1cccc2ccccc12,GI50,Hs-578T,4.63 µM (inactive)
same,GI50,MDA-N,22.2 µM (inactive)
same,GI50,TK-10,59.3 µM (inactive)
same,GI50,SF-268,20.6 µM (inactive)
same,GI50,CCRF-CEM,15.4 µM (inactive)
same,GI50,SNB-19,56.1 µM (inactive)
same,GI50,OVCAR-5,37.5 µM (inactive)
same,GI50,IGROV-1,28.9 µM (inactive)
same,GI50,KM12,16.6 µM (inactive)
same,GI50,ACHN,30.4 µM (inactive)
same,GI50,HOP-62,19 µM (inactive)
same,GI50,NCI/ADR-RES,25.7 µM (inactive)
same,GI50,A549,25.1 µM (inactive)
same,GI50,UACC-257,25.6 µM (inactive)
same,GI50,SK-MEL-28,20.7 µM (inactive)
same,GI50,OVCAR-3,13.1 µM (inactive)
same,GI50,OVCAR-4,28.4 µM (inactive)
same,GI50,MDA-MB-435,21.9 µM (inactive)
same,GI50,HCT-15,18.7 µM
same,GI50,M14,34.2 µM (inactive)
same,GI50,MOLT-4,14 µM (inactive)
same,GI50,PC-3,40.6 µM (inactive)
same,GI50,UO-31,38.5 µM (inactive)
same,GI50,HCT-116,11.9 µM (inactive)
same,GI50,K562,18.2 µM (inactive)
same,GI50,MDA-MB-231,36.4 µM (inactive)
same,GI50,A498,30.8 µM (inactive)
same,GI50,SK-OV-3,26.3 µM (inactive)
same,GI50,U-251,18.2 µM (inactive)
same,GI50,SW-620,21.2 µM (inactive)
same,GI50,RXF 393,5.93 µM (inactive)
same,GI50,CAKI-1,31 µM (inactive)
same,GI50,Malme-3M,11.5 µM (inactive)
same,GI50,RPMI-8226,7.43 µM (inactive)
same,GI50,HT-29,16.1 µM (inactive)
same,GI50,786-0,19.4 µM (inactive)
same,GI50,UACC-62,15.1 µM (inactive)
same,GI50,T47D,14.1 µM (inactive)
same,GI50,SR,15.9 µM (inactive)
same,GI50,HL-60,18.1 µM (inactive)
same,GI50,COLO 205,27.6 µM (inactive)
same,GI50,SF-295,19.2 µM (inactive)
same,GI50,LOX IMVI,18.1 µM (inactive)
same,GI50,HCC 2998,17.5 µM (inactive)
same,GI50,NCI-H23,24.5 µM (inactive)
same,GI50,HOP-92,17.1 µM (inactive)
same,GI50,SF-539,17.6 µM (inactive)
same,GI50,NCI-H460,15.5 µM (inactive)
same,GI50,SK-MEL-5,17.9 µM (inactive)
same,GI50,NCI-H226,17.1 µM (inactive)
same,GI50,DU-145,21.8 µM (inactive)
same,GI50,SK-MEL-2,16.9 µM (inactive)
same,GI50,SN12C,19.2 µM (inactive)
same,GI50,BT-549,33.2 µM (inactive)
same,GI50,OVCAR-8,32 µM (inactive)
same,GI50,EKVX,29.4 µM (inactive)
same,GI50,MCF7,19.1 µM (inactive)
same,GI50,NCI-H522,13.1 µM (inactive)
O=C1/C(=C/c2ccccc2[N+](=O)[O-])N=C(c2ccccc2)N1c1nc2ccccc2s1,GI50,Hs-578T,19.1 µM (inactive)
same,GI50,MDA-N,26.1 µM (inactive)
same,GI50,TK-10,49.2 µM (inactive)
same,GI50,SF-268,20.5 µM (inactive)
same,GI50,CCRF-CEM,< 0.01 µM (active)
same,GI50,SNB-19,42.6 µM (inactive)
same,GI50,OVCAR-5,73.6 µM (inactive)
same,GI50,IGROV-1,11.9 µM (inactive)
same,GI50,KM12,17.9 µM (inactive)
same,GI50,ACHN,23.2 µM (inactive)
same,GI50,HOP-62,27.1 µM (inactive)
same,GI50,NCI/ADR-RES,16.6 µM (inactive)
same,GI50,A549,34.2 µM (inactive)
same,GI50,UACC-257,65 µM (inactive)
same,GI50,SK-MEL-28,31.3 µM (inactive)
same,GI50,OVCAR-3,21.1 µM (inactive)
same,GI50,OVCAR-4,19.4 µM (inactive)
same,GI50,MDA-MB-435,19.4 µM (inactive)
same,GI50,HCT-15,17.5 µM
same,GI50,M14,42.7 µM (inactive)
same,GI50,MOLT-4,5.92 µM (inactive)
same,GI50,PC-3,31 µM (inactive)
same,GI50,UO-31,31.6 µM (inactive)
same,GI50,HCT-116,17.9 µM (inactive)
same,GI50,K562,15 µM (inactive)
same,GI50,MDA-MB-231,45.9 µM (inactive)
same,GI50,A498,28.1 µM (inactive)
same,GI50,U-251,29.4 µM (inactive)
same,GI50,SW-620,34.4 µM (inactive)
same,GI50,RXF 393,16.9 µM (inactive)
same,GI50,CAKI-1,34.1 µM (inactive)
same,GI50,SNB-75,27.3 µM (inactive)
same,GI50,RPMI-8226,9.82 µM (inactive)
same,GI50,HT-29,35.4 µM (inactive)
same,GI50,786-0,21.7 µM (inactive)
same,GI50,T47D,21.7 µM (inactive)
same,GI50,SR,12.9 µM (inactive)
same,GI50,HL-60,26.1 µM (inactive)
same,GI50,SF-295,40.2 µM (inactive)
same,GI50,LOX IMVI,22 µM (inactive)
same,GI50,HCC 2998,17.8 µM (inactive)
same,GI50,NCI-H23,17.4 µM (inactive)
same,GI50,HOP-92,21 µM (inactive)
same,GI50,SF-539,30.1 µM (inactive)
same,GI50,NCI-H460,27 µM (inactive)
same,GI50,SK-MEL-5,25.2 µM (inactive)
same,GI50,NCI-H226,41.3 µM (inactive)
same,GI50,DU-145,20.9 µM (inactive)
same,GI50,SK-MEL-2,33.2 µM (inactive)
same,GI50,SN12C,25 µM (inactive)
same,GI50,BT-549,20 µM (inactive)
same,GI50,OVCAR-8,17.4 µM (inactive)
same,GI50,EKVX,29 µM (inactive)
same,GI50,MCF7,13 µM (inactive)
same,GI50,NCI-H522,18.6 µM (inactive)

# From ChEMBL document CHEMBL1201862, “PubChem BioAssay data set” (2004)
